{"source": "patent US20100113291A1", "about": "(CENTRE NATIONAL DE LA RECHERCHE SCIENTIFIQUE, priority 2006, published 2010)", "target": "T1, MabA-wt (Mycobacterium tuberculosis, UniProt P9WGT3)", "T1 construct": "made in house; host or cells: Escherichia coli", "T1 sequence (P9WGT3 whole entry)": "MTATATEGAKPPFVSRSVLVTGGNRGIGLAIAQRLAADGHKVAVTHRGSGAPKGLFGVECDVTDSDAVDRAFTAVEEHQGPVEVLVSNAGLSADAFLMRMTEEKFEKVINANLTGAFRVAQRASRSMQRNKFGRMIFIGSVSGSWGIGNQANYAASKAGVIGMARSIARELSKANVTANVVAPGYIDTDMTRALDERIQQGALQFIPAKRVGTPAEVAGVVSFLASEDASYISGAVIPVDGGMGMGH", "format": "binding", "details": "spectrofluorimetry; read-out: KD for the cofactor", "note": "pKd: −log10 of the molar value."}
{"compound": "NC(=O)C1=CN([C@@H]2O[C@H](COP(=O)(O)OP(=O)(O)OC[C@H]3O[C@@H](n4cnc5c(N)ncnc54)[C@H](OP(=O)(O)O)[C@@H]3O)[C@@H](O)[C@H]2O)C=CC1", "note": "[NADPH]", "values": [{"measurement": "pKd", "result": 5.06}]}
